Values of other authors, collected in US20100240695A1, “[…] PHARMACEUTICAL COMPOSITIONS” (priority 2006, published 2010).

Settings: average in a patient population

Cc1ccc(-c2nc3ccc(C)cn3c2CC(=O)N(C)C)cc1 [zolpidem]
plasma level below which residual sedative effects are essentially extinguished: below 20 ng/ml
